Source: ChEMBL document CHEMBL1201862, “PubChem BioAssay data set” (2004)
Activity calls are given as the source filed them.

Experiments:
[1] = viability loss in human Jurkat cells – cell-based, luminescence, cytotoxicity control for P. falciparum gametocyte viability project, dose response (AID 1117277); assay type: functional;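 further: potency reflects loss of cellular ATP meaning fewer viable cells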
[2] = viability inhibitors of stage V gametocytes – luminescence, dose response (AID 1117278); assay type: functional, cell-based;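 further: gametocytes exposed to compound for 24 hours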
[3] = molecular target: T1, Oxysterols receptor LXR-beta (Homo sapiens, UniProt P55055); assay type: functional, cell-based;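 further: Cell-based luminescence dose-response assay of agonist activity at LXR, run as a confirmatory counterscreen to a daf-12 agonist screen; HEK293 cells with Gal4-LXR fusion and GAL4-driven luciferase reporter; agonist potency from rising luciferase signal of a Gal4-LXR reporter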
T1 sequence (P55055 whole entry): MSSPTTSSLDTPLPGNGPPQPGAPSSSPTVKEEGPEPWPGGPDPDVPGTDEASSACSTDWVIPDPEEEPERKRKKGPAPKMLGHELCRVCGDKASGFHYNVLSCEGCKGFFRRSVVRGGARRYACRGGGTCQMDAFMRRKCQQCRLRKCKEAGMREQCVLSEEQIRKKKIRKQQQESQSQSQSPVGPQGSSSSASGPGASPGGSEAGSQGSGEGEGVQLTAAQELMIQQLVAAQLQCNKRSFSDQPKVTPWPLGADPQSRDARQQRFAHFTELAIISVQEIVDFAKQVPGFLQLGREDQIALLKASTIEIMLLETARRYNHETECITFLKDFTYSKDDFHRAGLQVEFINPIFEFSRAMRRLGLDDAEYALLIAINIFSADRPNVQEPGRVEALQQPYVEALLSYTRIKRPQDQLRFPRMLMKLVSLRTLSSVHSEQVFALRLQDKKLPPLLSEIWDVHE

cells [4] = test: cells
[5] = OVCAR-3 cell viability loss – plate reader, dry powder samples, PAX8 inhibitor project, dose response (AID 743044); assay type: functional, cell-based
[6] = OVCAR8 cell viability loss – plate reader, dry powder samples, PAX8 project, dose response (AID 743197); assay type: functional, cell-based; conditions: OVCAR-8
Paired box protein Pax-8 = Paired box protein Pax-8 (Homo sapiens, UniProt Q06710); test: PAX8 transcriptional activity inhibition in RMG-I – RMG-I cells, luciferase, cherry-pick, dose response (AID 687027); assay type: functional, cell-based;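 further: luciferase reporter driven by Pax8 target thyroperoxidase promoter measured by SteadyGlo luminescence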
[7] = IGROV1 cell killing – plate reader, dry powder samples, PAX8 inhibitor project, dose response (AID 743043); assay type: functional, cell-based; conditions: IGROV-1
[8] = viability loss in HEK293 cells – cell-based, plate reader, cherry-picked samples, cytotoxicity control, dose response (AID 743446); assay type: functional
[9] = reduced cellular PGC1a acetyl-lysine signal – cell-based, cherry-picked samples, dose response (AID 720514); assay type: functional;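 further: potency may reflect raised or lowered acetylation signal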
[10] = Fluorescence-based cell-based high throughput dose response assay for inhibitors of the interaction of nucleotide-binding oligomerization domain containing 2 (NOD2) and the receptor-interacting serine-threonine kinase 2 (RIPK2).; assay type: functional; conditions: Homo sapiens
[11] = Luminescence Cell-Based Dose Retest to Confirm Inhibitors of Cancer Stem Cells. [Related pubchem assays (depositor defined):AID2717, AID2721]; assay type: functional; conditions: Homo sapiens
[12] = toxicity toward HepG2 liver cells – cell-based, plate reader, cherry-pick, antagonist series, cytotoxicity control, dose response (AID 743416); assay type: functional
[13] = A549 cell cytotoxicity, dose response, cytotoxicity control, plate reader, cherry-pick, antagonist series (AID 743412); assay type: functional, cell-based
[14] = blockers of bursicon-stimulated LGR2 cAMP reporter – cell-based, HEK293, CRE-luciferase reporter, cherry pick, set 2, dose response (AID 743343); assay type: functional;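 further: transfected cells were stimulated with diluted bursicon conditioned medium after compound addition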
[15] = blockade of melanocortin 4 receptor signaling – cell-based, plate reader, cherry pick, counter-screen for LGR2 antagonist project, dose response (AID 743444); assay type: functional;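 further: transfected HEK 293 cells stimulated with alpha-MSH peptide; potency of inhibitors of the alpha-MSH evoked signal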
[16] = P. falciparum Dd2 growth inhibitors, dose response, SYBR Green, cherry-picked samples (AID 1159567); assay type: functional, cell-based
[17] = toxicity to human hepatoma HepG2 cells – cell-based, cherry-picked samples, cytotoxicity control, dose response (AID 1159577); assay type: functional
[18] = general cell-killing toxicity readout – plate reader, dry powder samples, cytotoxicity control for PAX8 inhibitor project, dose response (AID 743021); assay type: functional, cell-based
[19] = viability loss in HepG2 liver cells – cell-based, ATP luminescence, cherry-pick, set 6, cytotoxicity control, dose response (AID 1053125); assay type: functional
cells [20] = conditions: HEK293
[21] = molecular target: NAD-dependent protein deacylase sirtuin-5, mitochondrial (Homo sapiens, UniProt Q9NXA8); test: sirtuin-5 deacylation blockers, concentration series – biochemical, fluorescence imaging, cherry-pick, set 5, dose response (AID 720591);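 further: desuccinylation of succinyl peptide AMC substrate read as fluorescence after trypsin release; potency of inhibitors that lower fluorescence and may act on trypsin instead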
Escherichia coli [22] = test: microbe, parasite or virus in culture
Escherichia coli [23] = test: microbe, parasite or virus in culture; remark: listed apart in the source
[24] = inhibition of Env-driven cell fusion – HIV entry, plate reader, dry powder, dose response (AID 687023); assay type: functional, cell-based
[25] = viability loss in MITF-independent A375 cells – cell-based, CellTiter-Glo luminescence, dry powder, set 7, counter-screen for MITF inhibitor project, dose response (AID 624490); assay type: functional; conditions: A-375
[26] = melanocyte viability loss, MITF-dependent cells, cell-based, plate reader, dry powder, cytotoxicity control, dose response (AID 651920); assay type: functional
[27] = cytotoxicity in MITF-independent A375 cells – cell-based, CellTiter-Glo luminescence, dry powder, set 4, counter-screen for MITF inhibitor project, dose response (AID 624364); assay type: functional; conditions: A-375;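 further: A375 melanoma cells are MITF independent so this is a counter screen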
[28] = MITF Orthogonal Assay: MALME3 CTG Assay Measured in Cell-Based System Using Plate Reader - 2084-04_Inhibitor_Dose_DryPowder_Activity_Set6.; assay type: functional; conditions: MALME-3
[29] = MITF Orthogonal Assay: SK-MEL-5 CTG Assay Measured in Cell-Based System Using Plate Reader - 2084-02_Inhibitor_Dose_DryPowder_Activity_Set5.; assay type: functional
[30] = growth inhibition of MALME3 cells – cell-based, CellTiter-Glo luminescence, dry powder, set 5, orthogonal assay for MITF inhibitor project, dose response (AID 651584); assay type: functional; conditions: MALME-3
[31] = inhibitors of TRPM1-promoter reporter in SK-MEL-5 – cell-based, luciferase, dry powder, set 9, MITF inhibitor project, dose response (AID 651588); assay type: functional
[32] = cytotoxicity in MITF-independent A375 cells – cell-based, CellTiter-Glo luminescence, dry powder, set 9, counter-screen for MITF modulator project, dose response (AID 651591); assay type: functional; conditions: A-375
[33] = growth inhibition of SK-MEL-5 melanoma cells – cell-based, CellTiter-Glo luminescence, dry powder, set 8, orthogonal assay for MITF inhibitor project, dose response (AID 651586); assay type: functional
[34] = viability loss in MITF-independent A375 cells – cell-based, CellTiter-Glo luminescence, dry powder, set 6, counter-screen for MITF inhibitor project, dose response (AID 624488); assay type: functional; conditions: A-375
[35] = MITF Measured in Cell-Based System Using Plate Reader - 2084-01_Inhibitor_Dose_DryPowder_Activity_Set6.; assay type: functional
[36] = cytotoxicity in melanoma parental cells – cell-based, CellTiter-Glo, dry powder, set 6, MITF inhibitor project, dose response (AID 624429); assay type: functional; conditions: SK-MEL-5
[37] = MITF Measured in Cell-Based System Using Plate Reader - 2084-01_Inhibitor_Dose_DryPowder_Activity_Set7.; assay type: functional

Sequence of Paired box protein Pax-8 (Q06710 whole entry): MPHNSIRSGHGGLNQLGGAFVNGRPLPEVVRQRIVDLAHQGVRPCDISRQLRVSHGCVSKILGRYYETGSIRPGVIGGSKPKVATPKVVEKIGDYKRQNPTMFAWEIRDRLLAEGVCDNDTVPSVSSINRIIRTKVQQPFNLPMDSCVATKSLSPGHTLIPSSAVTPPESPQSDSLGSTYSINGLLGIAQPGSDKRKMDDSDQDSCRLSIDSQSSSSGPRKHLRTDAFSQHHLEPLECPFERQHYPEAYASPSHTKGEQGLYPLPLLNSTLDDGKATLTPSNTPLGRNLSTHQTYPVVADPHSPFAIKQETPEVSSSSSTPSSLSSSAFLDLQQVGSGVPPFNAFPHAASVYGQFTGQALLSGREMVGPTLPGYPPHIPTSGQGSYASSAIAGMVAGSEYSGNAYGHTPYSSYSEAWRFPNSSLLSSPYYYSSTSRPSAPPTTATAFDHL
Sequence of NAD-dependent protein deacylase sirtuin-5, mitochondrial (Q9NXA8 whole entry): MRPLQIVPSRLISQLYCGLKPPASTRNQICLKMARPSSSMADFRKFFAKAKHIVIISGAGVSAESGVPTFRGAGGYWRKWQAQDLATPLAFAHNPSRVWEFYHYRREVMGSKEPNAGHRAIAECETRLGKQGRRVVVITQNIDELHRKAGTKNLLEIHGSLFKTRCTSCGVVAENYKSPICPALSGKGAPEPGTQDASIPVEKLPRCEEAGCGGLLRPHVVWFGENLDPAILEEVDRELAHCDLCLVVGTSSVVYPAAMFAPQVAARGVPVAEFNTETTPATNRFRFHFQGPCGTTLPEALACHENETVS

In the case of COc1ccc(-c2[nH]ncc2-c2csc(C)n2)c(O)c1, the IC50 [1] is reported as > 83.3 µM (inactive) and the IC50 [2] is reported as > 109 µM (inactive).
With NC(=O)c1c(NC(=O)c2ccccc2)sc2c1CCCC2 the EC50 [3] was > 67.6 µM (inactive) and the EC50 (cells [4]) was > 67.6 µM (inactive).
For C[C@H]1CCCCO[C@H](CN(C)Cc2ccc(Cl)c(Cl)c2)[C@@H](C)CN([C@@H](C)CO)C(=O)c2cc(NC(=O)Nc3ccc(C(F)(F)F)cc3)ccc2O1, the AC50 [5] was 23.4 µM (active), the AC50 [6] was 50.7 µM (active) and the AC50 (Paired box protein Pax-8) was 9.26 µM (active). The AC50 [7] was 59 µM (active).
For O=C(Cn1ncc(Cl)c(Cl)c1=O)NC(=O)NC1CCCCC1, the AC50 [8] was 7.89 µM (active), the AC50 [9] was 4.83 µM (active) and the IC50 [10] was 3.13 µM (active). For the same compound, the AC50 [11] was 1.81 µM (active), the AC50 (Paired box protein Pax-8) was 2.85 µM (active) and the AC50 [12] was 7.9 µM (active). The AC50 [13] was 7.17 µM (active), the AC50 [14] was 25.8 µM (active) and the AC50 [15] was 26.2 µM (active).
For CC(C)c1nc2oc3c(O)ncnc3c2c2c1CCC2, the IC50 [1] was > 83.3 µM (inactive) and the IC50 [2] was > 109 µM (inactive).
With CO[C@H]1CN(C)C(=O)c2cc(NC(=O)c3ccc(Oc4ccccc4)cc3)ccc2OC[C@@H](C)NC[C@@H]1C the AC50 [16] was 6.05 µM (active) and the AC50 [17] was > 39 µM (inactive).
With CC(C)CN1CCN(C(=O)COC(=O)c2ccc(S(C)(=O)=O)c([N+](=O)[O-])c2)CC1 the AC50 [18] was 22.7 µM (active), the AC50 [9] was 10.6 µM (active) and the AC50 (Paired box protein Pax-8) was 13 µM (active).
With COc1ccc(CNC(=O)c2sc(=O)n(Cc3ccc(C)cc3)c2C)cc1OC the AC50 [19] was > 52 µM (inactive) and the AC50 (cells [20]) was > 52 µM (inactive).
With C/C=C/c1ccc([C@@H]2[C@@H]3CN(Cc4ccc5c(c4)OCO5)C[C@H]2N3)cc1 the AC50 [16] was 4.09 µM (active) and the AC50 [17] was 11.8 µM (active).
In the case of Nc1ccccc1SCc1cn2ccccc2n1, the AC50 [21] is reported as 20.6 µM (active), the AC50 (Escherichia coli [22]) is reported as 19.9 µM (active) and the AC50 (Escherichia coli [23]) is reported as 7.26 µM (active).
With Cc1noc(C)c1S(=O)(=O)Nc1cccc2c1O[C@@H](CN(C)Cc1ccc(C(F)(F)F)cc1)[C@@H](C)CN([C@@H](C)CO)C2=O the AC50 [24] was 53.5 µM (active).
With COc1ccccc1N1CCN(C(C)C(=O)N2CC(C)OC(C)C2)CC1 (centres undefined) the AC50 [21] was > 30 µM (inactive).
For O=C1C(NS(=O)(=O)c2cccs2)=C(c2ccccc2)C(=O)c2ccccc21, the AC50 [25] was > 70 µM (inactive), the AC50 [26] was > 70 µM (inactive) and the AC50 [27] was > 70 µM (inactive). The AC50 [28] was > 70 µM (inactive), the AC50 [29] was 65.9 µM (active) and the AC50 [30] was > 70 µM (inactive). For the same compound, the AC50 [31] was > 70 µM (inactive), the AC50 [32] was > 70 µM (inactive) and the AC50 [33] was > 70 µM (inactive). The AC50 [34] was > 70 µM (inactive), the AC50 [35] was 45.7 µM (active) and the AC50 [36] was > 70 µM (inactive). For the same compound, the AC50 [37] was 39.1 µM (active).
With C[C@@H]1CCCCO[C@H](CN(C)Cc2ccc(Cl)c(Cl)c2)[C@@H](C)CN([C@@H](C)CO)C(=O)c2cc(NC(=O)Nc3ccc(C(F)(F)F)cc3)ccc2O1 the AC50 [5] was 40 µM (active), the AC50 [6] was > 70 µM (inactive) and the AC50 (Paired box protein Pax-8) was 4.2 µM (active).
